In data set [1] the test system is Plasmodium falciparum. The data set can be described thus: Antimalarial activity against chloroquine resistant Plasmodium falciparum K1 assessed as inhibition of parasite growth by [3H]-hypoxanthine incorporation assay. Format: functional, organism-based.
The subject of data set [2] is Plasmodium falciparum. The data set can be described thus: Antimalarial activity against chloroquine sensitive Plasmodium falciparum NF54 assessed as inhibition of parasite growth by [3H]-hypoxanthine incorporation assay. Type of data set: functional, organism-based.
Data set [3] concerns Plasmodium falciparum. Briefly: Antimalarial activity against chloroquine resistant Plasmodium falciparum K1 infected in human erythrocyte assessed as inhibition of parasite growth preincubated with compound for 24 hrs followed by hypoxanthine addition and measured after 24 hrs by [3H]-hypoxanthine incorporation based liquid scintillation counter. Type of data set: functional, organism-based.

Data set [4] deals with Plasmodium berghei. The data set can be described thus: Antimalarial activity against Plasmodium berghei GFP ANKA infected in NMRI mouse assessed as reduction in blood parasitemia level measured on day 4 by FACS analysis. Type of data set: functional, organism-based. In general terms: In flow cytometry, cells or beads pass a laser one at a time.
In data set [5] the test system is Plasmodium falciparum. Briefly: Antimalarial activity against chloroquine sensitive Plasmodium falciparum 3D7 infected in human erythrocyte assessed as inhibition of parasite growth preincubated with compound for 24 hrs followed by hypoxanthine addition and measured after 24 hrs by [3H]-hypoxanthine incorporation based liquid scintillation counter. Format: functional, organism-based. Conditions: 3D7, Erythrocyte.

For data set [6], the system named is Plasmodium falciparum. Briefly: Antimalarial activity against chloroquine-sensitive Plasmodium falciparum 3D7 infected in human erythrocyte assessed as inhibition of parasite growth incubated for 66 hrs by [3H]-hypoxanthine incorporation assay based liquid scintillation spectrometric method. Type of data set: functional, organism-based. The note with it: 3D7, Erythrocyte.

Data set [7] concerns Plasmodium falciparum. The data set can be described thus: Antimalarial activity against Plasmodium falciparum 3D7 assessed as inhibition of parasite growth. Format: functional, organism-based.
For data set [8], the system named is Plasmodium falciparum. The data set can be described thus: Antimalarial activity against Plasmodium falciparum Dd2 assessed as inhibition of parasite growth. Type of data set: functional, organism-based.
Data set [9] deals with Plasmodium falciparum. The data set can be described thus: Antimalarial activity against chloroquine resistant Plasmodium falciparum FcR3 assessed as inhibition of parasite growth measured after 48 hrs by classical radioactive microdilution method. Format: functional, organism-based. The note with it: FcR3, 48 h. (In broth dilution the organism is exposed to a series of concentrations in liquid medium.)

In data set [10] the test system is Plasmodium falciparum. Briefly: Antimalarial activity against highly chloroquine resistant Plasmodium falciparum FcM29 assessed as inhibition of parasite growth measured after 48 hrs by classical radioactive microdilution method. Conditions: FcM29, 48 h. Type of data set: functional, organism-based.
Data set [11] has as its system Plasmodium falciparum. Briefly: Antimalarial activity against chloroquine sensitive Plasmodium falciparum infected in human red blood cells assessed as inhibition of liberation and reinvasion steps of the erythrocytes by parasites measured after 72 hrs by titrated hypoxanthine incorporation assay. Type of data set: functional, organism-based, Red blood cell. The note with it: Erythrocyte.

The test system of data set [12] is Plasmodium falciparum. Briefly: Antimalarial activity against chloroquine resistant Plasmodium falciparum FcB1 infected in human red blood cells assessed as inhibition of liberation and reinvasion steps of the erythrocytes by parasites measured after 72 hrs by titrated hypoxanthine incorporation assay. Format: functional, organism-based, Red blood cell. The note with it: FcB1, Erythrocyte.

Data set [13] deals with Plasmodium falciparum. The data set can be described thus: Antimalarial activity against chloroquine-sensitive Plasmodium falciparum D6 assessed as inhibition of parasite growth by parasite lactate dehydrogenase assay. Type of data set: functional, organism-based.
The subject of data set [14] is Plasmodium falciparum. Briefly: Antimalarial activity against chloroquine-resistant Plasmodium falciparum W2 assessed as inhibition of parasite growth by parasite lactate dehydrogenase assay. Format: functional, organism-based.
For data set [15], the system named is Plasmodium berghei. The data set can be described thus: Antiplasmodial activity against luciferase expressing hepatic stage Plasmodium berghei sporozoites infected in human Huh-7 cells assessed as inhibition of parasite infection preincubated with cells for 1 hrs followed by parasite infection and measured after 48 hrs by bioluminescence assay. Type of data set: functional, organism-based.

Data set [16] deals with Plasmodium falciparum. Briefly: Antimalarial activity against Plasmodium falciparum K1 assessed as inhibition of parasite growth. Format: functional, organism-based.
The subject of data set [17] is Plasmodium falciparum. Briefly: Antimalarial activity against chloroquine-resistant Plasmodium falciparum W2 assessed as inhibition of parasite growth. Type of data set: functional, organism-based.
Data set [18] concerns Plasmodium falciparum. Briefly: Antimalarial activity against chloroquine and quinine sensitive Plasmodium falciparum assessed as inhibition of parasite growth. Type of data set: functional, organism-based.
A short description of data set [19]: Apparent oral volume of distribution in Sprague-Dawley rat by LC-MS/MS analysis. Type of data set: ADME. The note with it: in vivo.
Data set [20] can be described thus: Metabolic stability in Sprague-Dawley rat assessed as Cmax of 97-63 metabolite by LC-MS/MS analysis. Format: ADME.
Data set [21] in a line: Metabolic stability in Sprague-Dawley rat assessed as half-life of 97-63 metabolite by LC-MS/MS analysis. Type of data set: ADME.
A short description of data set [22]: Metabolic stability in Sprague-Dawley rat assessed as AUC(0 to t) of 97-63 metabolite by LC-MS/MS analysis. Format: ADME.
The nature of data set [23]: Metabolic stability in Sprague-Dawley rat assessed as Tmax of 97-63 metabolite by LC-MS/MS analysis. Format: ADME.
Data set [24] is described as follows: Metabolic stability in Sprague-Dawley rat assessed as AUC(0 to infinity) of 97-63 metabolite by LC-MS/MS analysis. Also on record: time infinity. Format: ADME.
Data set [25] concerns Plasmodium falciparum. The data set can be described thus: Antimalarial activity against chloroquine-resistant Plasmodium falciparum K14 infected in human red blood cells assessed as inhibition of parasite growth incubated for 42 hrs by [3H]-hypoxanthine incorporation assay. Format: functional, organism-based, Red blood cell. The note with it: K14, Erythrocyte.
The test system of data set [26] is Plasmodium falciparum. The data set can be described thus: Antimalarial activity against chloroquine-sensitive Plasmodium falciparum 3D7 infected in human erythrocytes assessed as inhibition of parasite growth incubated for 48 hrs by parasite lactate dehydrogenase based colorimetric assay. Type of data set: functional, organism-based. The note with it: 3D7, 48 h.

Data set [27] concerns Plasmodium falciparum. The data set can be described thus: Antimalarial activity against chloroquine-resistant Plasmodium falciparum FCR3 infected in human erythrocytes assessed as inhibition of parasite growth incubated for 48 hrs by [3H]-hypoxanthine incorporation assay. Type of data set: functional, organism-based.

The record followed here is ChEMBL document CHEMBL5126551, “Spiral molecules with antimalarial activities: A review” (Eur J Med Chem, 2022).

Values after ≈ are worked out from the molar mass of the structure shown.

What is called IC50 is the concentration needed to halve the response being measured. As usually defined, the Vd/F is the apparent distribution volume after extravascular dosing. For orientation: Cmax means the peak of the concentration-time curve. One may read the Tmax as the time from dosing to the highest level. For orientation: AUC means the area under the concentration-time curve, a measure of exposure.

For `c1cc(C2CCC3(CC2)OOC2(O3)C3CC4CC(C3)CC2C4)ccc1OCCN1CCOCC1` (stereo unspecified), the IC50 in the data set with Plasmodium falciparum [1] and in the data set with Plasmodium falciparum [2] was 2.8 ng/mL (≈ 5.96 nM) throughout. As for `CN1CCN(C2CCN(C(=O)CC3CCC4(CC3)OOC3(OO4)C4CC5CC(C4)CC3C5)CC2)CC1` (stereo unspecified), in the data set with Plasmodium falciparum [3], the IC50 turned out to be 0.0011 µM. Besides, in the data set with Plasmodium berghei [4], the EC50 turned out to be 1.33 mg/kg and the EC90 was 4.18 mg/kg. In the data set with Plasmodium falciparum [5], the IC50 came to 0.0008 µM. For `CCCCCCCCCCCCCCC[C@@H](O)CC1(OC)CCC2(C=CC(=O)C=C2)O1` (stereo partly specified), in the data set with Plasmodium falciparum [6], the IC50 came out at 0.48 µM.

Consider `C1CCCCCC2(CCCCC1)OOCCCOO2`, for which the results for the EC50 in the data set with Plasmodium falciparum [7] and in the data set on Plasmodium falciparum [8] were 0.268 µM and 0.897 µM, respectively. Turning to `CC1(C)COC2(CCC(NC3CCC(Nc4ccnc5cc(Cl)ccc45)CC3)CC2)OO1` (stereo unspecified), the figures for the half-inhibitory concentration (IC50) in the data set on Plasmodium falciparum [9] and in the data set with Plasmodium falciparum [10] were 0.012 µM and 0.01 µM, respectively. As to `Clc1ccc2c(NCCNC3CCC4(CC3)OOC3(c5ccccc5)CC(c5ccccc5)=CC3O4)ccnc2c1` (stereo unspecified), the results for the concentration for half-maximal inhibition (IC50) in the data set with Plasmodium falciparum [11] and with Plasmodium falciparum [12] were 0.008 µM and 0.021 µM, respectively. In the case of `Cc1ccc(S(=O)(=O)N2CCC3(CC2)OOC(C2CCC(C)CC2)OO3)cc1` (stereo unspecified), the IC50 is 0.7 µM in the data set with Plasmodium falciparum [13] and 0.83 µM in the data set with Plasmodium falciparum [14]. The corresponding values for `Cc1ccc(C2OOC3(CCN(S(=O)(=O)c4ccccc4)CC3)OO2)cc1` are 0.3 µM and greater than 0.2 µM. Take `CC(C)(C)C(=O)C1C(c2ccccc2)(c2ccccc2)N=NC12C(=O)N1[C@@H](C(=O)OC(c3ccccc3)c3ccccc3)C(C)(C)S[C@@H]12` (stereo partly specified): in the data set with Plasmodium berghei [15], the half-inhibitory concentration (IC50) turned out to be 3.32 µM. Consider `COC(=O)C12C=C(OC)[C@]3(Cl)C(C)(C=C(C4=C[C@H](O)[C@@H]5O[C@]5(CC=C(C)C)[C@@H]4O)[C@]3(O)C13OC(=O)c1c(O)cc(C)cc1O3)C2` (stereo partly specified), for which, in the data set with Plasmodium falciparum [16], the IC50 came out at 2.71 µM. As for `CC(C)(N)CNC(=O)C(=O)OC1CCCC2(C1)OOC1(O2)C2CC3CC(C2)CC1C3` (stereo unspecified), the values for the IC50 in the data set with Plasmodium falciparum [1] and with Plasmodium falciparum [2] were 1 ng/mL (≈ 2.37 nM) and 0.91 ng/mL (≈ 2.15 nM), respectively. On to `COC(=O)C1=CO[C@@H](C)[C@@H]2CN3CC[C@@]4(C(=O)Nc5ccccc54)[C@H]3C[C@H]12`, for which, in the data set with Plasmodium falciparum [17], the 50% inhibitory concentration (IC50) was determined as 17000 ng/mL (≈ 46200 nM). As to `CCOC(=O)C1=C2N=C(c3ccncc3)NN2C2=C(C(=O)CCC2)C12C(=O)Nc1ccccc12` (stereo unspecified), the IC50 with Plasmodium falciparum [18] came out at 0.295 µM. For the compound `O=C(O)CC1CCC2(CC1)OOC1(O2)C2CC3CC(C2)CC1C3` (stereo unspecified), the IC50 with Plasmodium falciparum [1] was 34 ng/mL (≈ 105 nM); in the data set on Plasmodium falciparum [2], 45 ng/mL (≈ 140 nM).

For the compound `C=C(c1ccc(OC(C)(C)COC(=O)CCC(=O)O)cc1)C1OCC2(OO1)C1CC3CC(C1)CC2C3` (stereo unspecified), in data set [19], the Vd/F was found to be 7.81 L/kg. Moreover, the Cmax in [20] came to 1350 ng/mL. For the same compound, the t1/2 in data set [21] turned out to be 9.27 h. In [22], the AUCt stood at 9100 ng·h/mL. Further, the time of peak concentration (Tmax) in data set [23] was 2.2 h. Moreover, in data set [24], the AUC worked out at 9150 ng·h/mL. For `COC(=O)C12C=C(OC)[C@@]3(Cl)C(C)(C=C(C4=C[C@H](O)[C@@H]5O[C@]5(CC=C(C)C)[C@@H]4O)[C@@]3(O)C13OC(=O)c1c(O)cc(C)cc1O3)C2` (stereo partly specified), the IC50 in the data set with Plasmodium falciparum [16] stood at 5.73 µM. On to `CCOc1ccc(N2C(=O)C3(c4ccccc4Cc4ccccc43)C23c2ccccc2-c2ccccc23)cc1`, for which the concentration for half-maximal inhibition (IC50) with Plasmodium falciparum [25] worked out at 5 µM. On to `COc1cc([C@@H]2c3cc(Cl)ccc3NC3(C(=O)Nc4ccccc43)[C@H]2C)ccc1O` (stereo partly specified), for which the IC50 with Plasmodium falciparum [26] was 1.8 µM; with Plasmodium falciparum [27], 1.67 µM. Take `CC(C)OC(=O)C1=C2N=C(c3ccncc3)NN2C2=C(C(=O)CCC2)C12C(=O)Nc1ccccc12` (stereo unspecified): in the data set with Plasmodium falciparum [18], the IC50 worked out at 0.246 µM.
